Experimental findings from patent US20220016196A1, “Aloe Based Compositions Comprising Polysaccharides and Polyphenols for Regulation of Homeostasis of Immunity” (Unigen, Inc., priority 2020, published 2022) are described below.

Common to all, as to format: in vivo, rat
Experiment [1] deals with LPS-induced acute lung injury rats. Description: LPS-induced acute lung injury, lung histopathology (H&E). As to the method: (§1) The study was designed to evaluate the direct impact of an Aloe-based composition (UP360) made in the Example 9 in alleviating LPS-induced acute lung injury administered orally at 500 mg/kg and 250 mg/kg. […] In this study, we treated rats with the test materials orally for 7 days before model induction with LPS. On the 8th day, an hour after oral treatment, LPS was instilled intratracheally (i.t.) at 10 mg/kg dissolved in 0.1 mL/100 g PBS to each rat. The normal control rats received the same volume i.t. PBS only.
We sacrificed surviving animals 24 hours after intratracheal LPS administration to the rats. At necropsy, collected bronchoalveolar lavage (BAL) by intratracheal injection of 1.5 mL PBS into the right lobe followed by gentle aspiration at least 3 times. Pooled recovered fluid, centrifuged at 1500 rpm for 10 min at 4 ° C., and was used to measure cytokines (e.g. IL-6) and pulmonary protein levels. This same right lobe was collected for tissue homogenization from each rat for MIP-2/CINC-3 protein analysis. The left lobe was fixed with formalin and submitted for histopathology evaluation to Nationwide Histology for analysis by a certified pathologist. Serum collected at necropsy was used to measure cytokines such as TNF-α and IL-1β.
The left lobe of the lung was used for the histopathology analysis.

In a further experiment the test system is C Reactive Protein (CRP). Description: LPS-induced acute lung injury, BAL C Reactive Protein ELISA. The following applies: rats. As to the method: as §1
(§2) We sacrificed surviving animals 24 hours after intratracheal LPS administration to the rats. At necropsy, collected bronchoalveolar lavage (BAL) by intratracheal injection of 1.5 mL PBS into the right lobe followed by gentle aspiration at least 3 times. Pooled recovered fluid, centrifuged at 1500 rpm for 10 min at 4 ° C., and was used to measure cytokines (e.g. IL-6) and pulmonary protein levels. […]
The presence of C Reactive Protein (CRP) in rat BAL diluted 1:1,000 was measured using the C Reactive Protein (PTX1) Rat ELISA kit from Abcam (product #: ab108827) as follows: 1:1,000 diluted BAL was added to a microplate coated with CRP antibody. […] After developing for 10 minutes at room temperature, a stop solution was added, and the absorbance was read at 450 nm. The concentration of CRP was calculated based on the absorbance readings of a CRP standard curve.

Experiment [2] in a line: LPS-induced acute lung injury, BAL total protein (BCA). The following applies: rats. Here is the method:
as §1, §2
The amount of total proteins in the broncho-alveolar lavage (BAL) samples from Example 23 was measured using the Pierce BCA Protein Assay kit from ThermoFisher Scientific (product #: 23225) as follows: BAL was diluted 1:5, mixed with bicinchoninic acid (BCA) reagent in a microplate, and incubated at 37° C. for 30 minutes. Absorbance was read at 580 nm, and protein concentration in BAL was calculated based on the absorbance readings of a bovine serum albumin standard curve.

The test system of a further experiment is TNF-α. Description: LPS-induced acute lung injury, serum TNF-α ELISA. Conditions: rats. Here is the method: as §1, §2
The presence of TNF-α in undiluted rat serum from Example 23 was measured using the rat TNF-α Quantikine ELISA kit from R&D Systems (product#: RTA00) as follows: undiluted serum was added to a microplate coated with TNF-α antibody. […] After developing for 30 minutes at room temperature, a stop solution was added, and the absorbance was read at 450 nm. The concentration of TNF-α was calculated based on the absorbance readings of a TNF-α standard curve.
Background: In an ELISA, binding on a coated surface is turned into a signal by an enzyme label.

Another experiment concerns MIP-2/CINC-3. Kind of experiment: LPS-induced acute lung injury, lung homogenate MIP-2/CINC-3 ELISA. The following applies: rats. Here is the method: as §1
We sacrificed surviving animals 24 hours after intratracheal LPS administration to the rats. At necropsy, collected bronchoalveolar lavage (BAL) by intratracheal injection of 1.5 mL PBS into the right lobe followed by gentle aspiration at least 3 times. […]
50 μL of each rat lung homogenate sample from Example 23 (10 per group for Vehicle, Sodium Butyrate (SB), UP360 Low dose, UP360 High dose, 7 per group for Control) and 50 μL of assay diluent buffer were added to the wells of a 96-well microplate coated with monoclonal CINC-3 antibody and allowed to bind for 2 hours. […] The absorbance of each well was read at 450 nm (with a 580 nm correction) and compared to a standard curve of CINC-3 in order to approximate the amount of CINC-3 in each rat lung homogenate sample.

Setting [3] is: LPS 10 mg/kg i.t., 24 hours post, oral, 500 mg/kg.

Consider `CCCC(=O)[O-].[Na+]` [Sodium Butyrate], for which, in experiment [1] (score 0-4, 500 mg/kg), the “Infiltration of PMC” value is listed as 2.75 ± 0.78 and the “Pulmonary Edema” value was 2.35 ± 0.95. For the same molecule, the “Overall lung tissue Severity” value in experiment [1] (score 0-4, H&E left lobe, 500 mg/kg) worked out at 3.05 ± 0.42. Besides, in the experiment with C Reactive Protein (CRP) (setting [3]), the “BAL CRP level, Mean ± SD” value turned out to be 20093.5 ± 8826.1 pg/mL. For the same molecule, the “reduction of BAL CRP vs vehicle” value with C Reactive Protein (CRP) (LPS i.t., 500 mg/kg oral) is “minimal changes”. In experiment [2] (setting [3]), the “BAL protein level, Mean ± SD” value turned out to be 2940.14 ± 2092.32 µg/mL. Further, in experiment [2] (LPS i.t., 500 mg/kg oral), the “reduction in BAL total proteins vs vehicle” value was 30.2%. Further, the “serum TNF-α level, Mean ± SD” value in the experiment on TNF-α (LPS 10 mg/kg i.t., 24 hours post, oral 7 days pre-treatment, 500 mg/kg) is given as 3.35 ± 1.73 pg/mL. In addition, the “reduction in serum TNF-α level vs vehicle control” value with TNF-α (LPS i.t., 500 mg/kg oral) amounted to 67.9%. Further, the “lung homogenate MIP-2/CINC-3 level, Mean ± SD” value in the experiment with MIP-2/CINC-3 (setting [3]) is listed as 464.00 ± 220.32 pg/mL. Further, the “reduction in CINC-3 level vs vehicle” value with MIP-2/CINC-3 (LPS i.t., 500 mg/kg oral) is given as 17.7%.
